Measured values reported in BindingDB's records for patent US12128028 (Metrion Biosciences, 2024).

molecular target: Potassium voltage-gated channel subfamily A member 3 (Homo sapiens, UniProt P22001); test: Biological Assay
Description: The QPatch HT system (Sophion Bioscience A/S, Denmark) was used with the conventional whole-cell configuration. This system is an automated, chip-based planar patch clamp device allowing for up to 48 parallel independent experiments in one experimental assay run. Cells are added to each well and drawn by suction onto a small aperture to obtain a Gigaohm seal between the cell membrane and treated silicon surface, and whole-cell recordings initiated after access is achieved by suction and/or voltage pulses. The QPatch HT uses static perfusion, whereby a small volume of recording solution or drug is added to a reservoir on the chip and the solution perfuses across the cell through quartz-lined microfluidic channels; this solution is removed by capillary action when the next sample application is made.CHO-Kv1.3 cells were prepared for experiments by dissociation from T175 cell culture flasks using trypsin-EDTA (0.05%), cells were kept in serum free media in the cell hotel on board the QPatch HT. These cells were sampled, washed and re-suspended in extracellular recording solution by the QPatch HT immediately before application to the recording well site on the chip. Experiments were performed using the following solutions; extracellular solution contained (in mM); 150 NaCl, 10 KCl, 1 MgCl2, 3 CaCl2), 10 Glucose and 10 HEPES (pH 7.4, NaOH) and intracellular solution contained (in mM); 20 KCl, 120 KF, 10 HEPES, 10 EGTA, 5 ATP (pH 7.2, KOH).The potency (Inhibitory Concentration 50%, IC50) of synthesized compounds against Kv1.3 was determined from concentration-response relationships established by cumulatively applying four escalating concentrations of test compound to an individual cell and a minimum of N≥3 individual cells of data per compound were used to generate the IC50 value.

Sequence of Potassium voltage-gated channel subfamily A member 3 (P22001 whole entry, the tested form may be a part): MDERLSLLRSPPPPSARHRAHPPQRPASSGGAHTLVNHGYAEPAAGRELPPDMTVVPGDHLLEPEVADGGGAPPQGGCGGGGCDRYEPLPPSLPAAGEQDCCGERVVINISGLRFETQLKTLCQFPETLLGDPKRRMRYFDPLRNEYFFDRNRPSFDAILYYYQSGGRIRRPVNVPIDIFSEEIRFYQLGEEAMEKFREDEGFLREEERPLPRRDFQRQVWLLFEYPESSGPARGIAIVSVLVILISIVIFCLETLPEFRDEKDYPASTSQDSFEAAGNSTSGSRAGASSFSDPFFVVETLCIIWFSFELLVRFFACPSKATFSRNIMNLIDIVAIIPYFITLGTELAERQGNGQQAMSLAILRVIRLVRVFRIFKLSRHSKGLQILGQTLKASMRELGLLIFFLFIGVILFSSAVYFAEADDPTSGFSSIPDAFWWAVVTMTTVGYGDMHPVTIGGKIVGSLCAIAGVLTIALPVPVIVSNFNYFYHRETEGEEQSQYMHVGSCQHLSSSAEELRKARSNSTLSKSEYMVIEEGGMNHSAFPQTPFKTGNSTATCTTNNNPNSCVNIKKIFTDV

IC50 [nM]	SMILES
212	CC[C@@H]1N=C(C23CC(N(Cc4ccc(C(F)(F)F)cc4)S(=O)(=O)c4ccc(F)cc4)(C2)C3)N[C@@]1(C)C(=O)NCCC(F)(F)F (racemic) [US12128028, Example 235]
365	CC[C@H]1N=C(C23CC(N(Cc4ccc(C(F)(F)F)cc4)S(=O)(=O)c4ccc(F)cc4)(C2)C3)N[C@@]1(C)C(=O)NCCC(F)(F)F (racemic) [US12128028, Example 259]
103	CC1(C)N=C(C23CC(N(Cc4ccc(Cl)c(F)c4)S(=O)(=O)c4ccccc4)(C2)C3)N[C@H]1C(=O)N1CCC[C@H](C(F)(F)F)C1 (racemic) [US12128028, Example 173]
